Reference: patent publication US6613961B1, “Plants capable of metabolizing drugs and use thereof” (priority 1998, dated 2003)

Columns and labels:
[1] = system: potato transformants; assay: Assay for herbicide resistance of potato transformants (human CYP2C19); conditions: for Resistance to herbicide: Transformant, 14 days after dispersal
[2] = system: S1972 (human CYP2B6); conditions: acetochlor 20 μmol, metolachlor 30 μmol dispersed
[3] = biological target: T1, Human CYP2B6 (Homo sapiens, UniProt P20813); assay: Metabolism of herbicides in microsomes of recombinant yeast expressing human P450
T1 sequence (P20813 1-491): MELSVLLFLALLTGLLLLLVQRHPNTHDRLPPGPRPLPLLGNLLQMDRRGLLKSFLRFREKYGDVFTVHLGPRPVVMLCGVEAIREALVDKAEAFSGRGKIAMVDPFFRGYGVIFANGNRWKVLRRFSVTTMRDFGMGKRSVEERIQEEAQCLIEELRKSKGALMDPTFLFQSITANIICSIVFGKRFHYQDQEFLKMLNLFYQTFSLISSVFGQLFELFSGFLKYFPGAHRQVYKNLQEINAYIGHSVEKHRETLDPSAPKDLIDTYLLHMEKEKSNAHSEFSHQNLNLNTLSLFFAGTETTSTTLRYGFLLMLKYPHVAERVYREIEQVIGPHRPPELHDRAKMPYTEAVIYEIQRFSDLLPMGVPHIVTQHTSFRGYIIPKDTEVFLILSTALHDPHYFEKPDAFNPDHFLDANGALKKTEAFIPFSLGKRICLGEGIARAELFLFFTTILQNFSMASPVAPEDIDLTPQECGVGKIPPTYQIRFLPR
Description: The reaction was carried out in a range of temperature suitable for an organism from which a p450 molecular species is derived (for example, 37° C. for human P450), by mixing with air while vigorously shaking, within a period during which an enzyme is not inactivated (for example, for 10 to 60 min).
From the height of the peak, a metabolized amount can be obtained.
To 0.1 M potassium phosphate buffer (pH 7.4), the microsomal fraction prepared from each of yeast strains respectively expressing one of 11 human P450 molecular species (obtained from Sumitomo Chemical) was added so that the amount of the p450 would be 25 pmol. Furthermore, 0.5 mM NADPH, 5 mM glucose 6 phosphate, 1 U/ml glucose 6 phosphate dehydrogenase, and 0.1 mM each of the following herbicides (those available in the market were used) were added at the final concentrations thereto to make the total volume of 100 μl. The reaction mixture was shaken at 37° C. for 60 min, and an organic solvent was added thereto for the extraction. The extract was applied to the high performance liquid chromatography, and the metabolite was measured.

[4] = system: S1974 (human CYP2C19); assay: Herbicide tolerance assay for transformants; type: in vivo, Solanum tuberosum cv. MayQueen; conditions: acetochlor 20 μmol, atrazine 1.2 μmol, metolachlor 30 μmol dispersed
Description: Then, herbicides were dispersed.

[5] = system: seeds of Nipponbare into which the gene was not introduced; assay: Germination assay for herbicide resistance, non-introduced rice seeds; type: in vivo, rice (Nipponbare); conditions: after about 4 to 7 days
[6] = system: human P4502C18 gene-introduced rice; assay: Germination assay for herbicide resistance of human P4502C18 gene-introduced rice R1 seeds; type: in vivo
[7] = system: non-transformed MayQueen; assay: Assay for herbicide resistance, non-transformed potato; type: in vivo; conditions: 14 days after dispersal
Description: 4, the same growth as that when herbicide was not dispersed.

[8] = system: human P4502C19 gene-introduced rice; assay: Germination assay for herbicide resistance of human P4502C19 gene-introduced rice R1 seeds; type: in vivo
[9] = biological target: T2, Human CYP2C19 (Homo sapiens, UniProt P33261); assay: Metabolism of herbicides in microsomes of recombinant yeast expressing human P450; type: in vitro ADME
T2 construct: purchased Sumitomo Chemical; host or cells: recombinant yeast, microsomal fraction

[10] = system: potato transformants; assay: Herbicide metabolism in the potato transformants; type: in vivo, potato (MayQueen); conditions: 14C-labeled pyributicarb 10 μM in the medium; cultured for 8 days; thin layer chromatography
Description: The potato transformants proliferated from axillary buds, elongated to about 10 cm, were cultured in the medium added with the ^14C-labeled pyributicarb at the concentration of 10 μM. The plants were cultured for 8 days, and metabolites were extracted from the plants (Murakami, M. et al., J. Pesticide. Sci., 1997, 22, 222-225). The metabolites and the culture solution were analyzed by thin layer chromatography (Shiota, N. et al., Pestic. Biochem. Physiol., 1996, 54, 190-198).

T2 sequence (P33261 whole entry): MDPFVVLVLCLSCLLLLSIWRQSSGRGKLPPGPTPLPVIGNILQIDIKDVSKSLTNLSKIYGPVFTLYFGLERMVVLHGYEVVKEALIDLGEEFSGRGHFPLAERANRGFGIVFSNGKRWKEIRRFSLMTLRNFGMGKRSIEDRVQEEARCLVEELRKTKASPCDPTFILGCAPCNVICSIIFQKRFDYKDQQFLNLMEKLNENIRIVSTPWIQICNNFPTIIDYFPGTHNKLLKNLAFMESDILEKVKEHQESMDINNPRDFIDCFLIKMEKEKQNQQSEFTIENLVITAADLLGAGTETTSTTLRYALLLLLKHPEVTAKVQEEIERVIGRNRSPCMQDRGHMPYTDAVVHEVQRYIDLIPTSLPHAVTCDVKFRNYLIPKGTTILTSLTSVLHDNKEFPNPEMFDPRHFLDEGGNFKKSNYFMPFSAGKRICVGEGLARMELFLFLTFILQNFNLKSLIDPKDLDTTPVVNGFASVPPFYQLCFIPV

| SMILES | Resistance to herbicide ([1]; Metolachlor 10 μmol/pot) | Resistance to herbicide ([1]; Metolachlor 15 μmol/pot) | Resistance to herbicide ([1]; Metolachlor 20 μmol/pot) | resistance of the transformant compared with the non-transformed MayQueen ([1]; herbicide dispersed 1 week after transfer to pots) | resistance of the transformant to the herbicide [2] | metabolic reaction confirmed [3] | resistance of the transformant to the herbicide [4] | Germination of seeds ([5]; […] metolachlor, […] alachlor, 15 μM triflurarin) | Germination of seeds ([5]; metolachlor 4 μM) | The number of tolerant lines ([6]; 2C18, 4 μM · 2 ml, 72 sample lines) | elongation of shoots and roots of segregated individuals ([6]; metolachlor 4 μM) | Resistance to herbicide ([7]; Metolachlor 10 μmol/pot) | Resistance to herbicide ([7]; Metolachlor 15 μmol/pot) | Resistance to herbicide ([7]; Metolachlor 20 μmol/pot) | The number of tolerant lines ([8]; 2C19, 4 μM · 2 ml, 68 sample lines) | elongation of shoots and roots of segregated individuals ([8]; metolachlor 4 μM) | metabolic reaction confirmed [9] | amounts of pyributicarb in transgenic plant and in the medium compared with non-transformed MayQueen [10] |
| --- | --- | --- | --- | --- | --- | --- | --- | --- | --- | --- | --- | --- | --- | --- | --- | --- | --- | --- |
| CCc1cccc(C)c1N(C(=O)CCl)C(C)COC (stereo not drawn) [metolachlor] | 2.5 | 3.5 | 2.5 | higher resistance | strong resistance | O-deethylation, O-demethylation | strong resistance | inhibited | inhibited | 3 | normally elongated | 2 | 2 | 1.5 | 13 | normally elongated |  |  |
| COc1cccc(N(C)C(=S)Oc2cccc(C(C)(C)C)c2)n1 [pyributicarb] |  |  |  |  |  |  |  |  |  |  |  |  |  |  |  |  | thioester cleavage | obviously reduced |
